# Values quoted from earlier work as cited in patent publication US6906047B2, “Aqueous ifosfamide composition” (Gensia Sicor Pharmaceuticals, Inc., priority 2001, dated 2005).
compound,measurement,value
"O=P1(NCCCl)OCCCN1CCCl (stereo not shown) [ifosfamide, 3-(2-chloroethyl)-2-[(2-chloroethylamino)]-tetrahydro-2H-1,3,2-oxazaphosphorin-2-oxide]",solubility of ifosfamide in water,about 10 % by weight
